Results: BindingDB's records for doi:10.1016/j.ejmech.2020.112337 (Paris-Saclay University, 2020)
pEC50: −log10 of the molar value.

experiment: Inhibition of RIPK1 in human FADD-deficient Jurkat I 2.1 cells assessed as reduction in TNFalpha-induced necroptosis measured after 24 hrs by MTS assay

Compound | pEC50
CCCCNc1nc2ccc([N+](=O)[O-])cc2[nH]1 | 5.77

experiment: Inhibition of RIPK1 in human FADD-deficient Jurkat I 2.1 cells assessed as protection against TNFalpha-induced necroptosis measured after 24 hrs by MTS assay

Compound | pEC50
CCCNc1nc2ccc([N+](=O)[O-])cc2[nH]1 | 4.84
O=[N+]([O-])c1ccc2nc(NC3CCCCC3)[nH]c2c1 | 5.98
COC(=O)c1cccc2nc(NC3CCCCC3)[nH]c12 | 5.05
CCCCNc1nc2ccc([N+](=O)[O-])cc2s1 | 5.16
CCCCNc1nc2cc([N+](=O)[O-])ccc2s1 | 5.33
O=[N+]([O-])c1ccc2nc(Nc3ccccc3)[nH]c2c1 | 5.60
CC(C)Nc1nc2ccc([N+](=O)[O-])cc2[nH]1 | < 4.60
Clc1ccc2nc(NC3CCCCC3)[nH]c2c1 | 5.36
CCCCNc1nc2cccc(C(=O)OC)c2[nH]1 | 4.74
CCCCNc1nc2ccc([N+](=O)[O-])cc2[nH]1 | 5.77
